From ChEMBL document CHEMBL1201862, “PubChem BioAssay data set” (2004)
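Five compound concentrations were applied to cells in 96-well plates for 48 hours; endpoints were derived by simple linear interpolation of the resulting dose-response curve. GI50: concentration for 50% inhibition of growth.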 The source made the active and inactive calls. Cut-off read from the data, not from the text of the source: active = GI50 up to about 1.1 µM and inactive = higher.

Key:
Experiment in all cases: NCI anticancer screen, dose series, 48 h
[1] = test system: A549
[2] = test system: DU-145
[3] = test system: UO-31
[4] = test system: SNB-19
[5] = test system: RXF 393
[6] = test system: K562
[7] = test system: EKVX
[8] = test system: OVCAR-5
[9] = test system: SF-295
[10] = test system: TK-10
[11] = test system: HCC 2998
[12] = test system: SK-OV-3
[13] = test system: NCI/ADR-RES
[14] = test system: MDA-MB-435
[15] = test system: A498
[16] = test system: NCI-H23
[17] = test system: UACC-62
[18] = test system: SK-MEL-5
[19] = test system: SF-268
[20] = test system: BT-549

Measured: GI50

O=C(CSc1nc(O)nc2[nH]cnc12)Nc1ccccc1
inactive: [1] > 100 µM | [2] > 100 µM | [3] > 100 µM | [4] > 100 µM | [5] > 100 µM | [6] 85.3 µM | [7] > 100 µM | [8] > 100 µM | [9] 86.9 µM | [10] > 100 µM | [11] > 100 µM | [12] > 100 µM | [13] > 100 µM | [14] 53.1 µM | [15] 76.7 µM | [16] > 100 µM | [17] 80.7 µM | [18] 46.7 µM | [19] 69.2 µM | [20] 46.9 µM

[N-]=[N+]=Nc1ccc(CNc2cc(=O)[nH]c(=O)[nH]2)cc1
inactive: [1] > 100 µM | [2] > 100 µM | [3] > 100 µM | [4] > 100 µM | [5] > 100 µM | [6] > 100 µM | [7] > 100 µM | [8] > 100 µM | [9] > 100 µM | [10] > 100 µM | [11] > 100 µM | [12] > 100 µM | [13] > 100 µM | [14] > 49.2 µM | [15] > 100 µM | [16] > 100 µM | [17] > 100 µM | [18] > 100 µM | [19] > 100 µM | [20] > 100 µM

Cc1[nH]n(-c2ncc(C(=O)O)c(=O)[nH]2)c(=O)c1CCO
inactive: [1] > 85.3 µM | [2] > 100 µM | [3] > 100 µM | [4] > 100 µM | [5] > 100 µM | [6] > 100 µM | [7] > 100 µM | [8] > 100 µM | [9] > 100 µM | [10] > 100 µM | [11] > 58.9 µM | [12] > 100 µM | [13] > 100 µM | [14] > 100 µM | [15] > 100 µM | [16] > 100 µM | [17] > 100 µM | [18] > 100 µM | [19] > 100 µM | [20] > 100 µM

CN(C)CCC(C(=O)C(C)(C)C)c1ccccn1 (stereo not given)
inactive: [1] > 100 µM | [2] > 100 µM | [3] > 100 µM | [4] > 100 µM | [5] > 100 µM | [6] > 100 µM | [7] > 100 µM | [8] > 100 µM | [9] > 100 µM | [10] > 100 µM | [11] > 100 µM | [12] > 100 µM | [13] > 100 µM | [14] > 100 µM | [15] > 100 µM | [16] > 100 µM | [17] > 100 µM | [18] > 100 µM | [19] > 100 µM | [20] > 100 µM

CC1(c2ccc(Cl)s2)CC(c2ccc(Cl)s2)=C(C#N)C(=C(C#N)C#N)N1 (stereo not given)
inactive: [1] 22.4 µM | [2] 16.9 µM | [3] 18.7 µM | [4] 20.8 µM | [5] 16.9 µM | [6] 29.6 µM | [7] 18.2 µM | [8] 19.4 µM | [9] 15 µM | [10] 22.4 µM | [11] 18.9 µM | [12] 16.9 µM | [13] 19.3 µM | [14] 18.4 µM | [15] 19.4 µM | [16] 21.2 µM | [17] 15.8 µM | [18] 15.2 µM | [19] 20.7 µM | [20] 20.9 µM

CN1C/C(=C\c2cccs2)C2=NC(=S)NC(c3cccs3)C2C1 (stereo not given)
inactive: [1] 50.7 µM | [2] > 100 µM | [3] 38.3 µM | [4] > 100 µM | [5] 88.7 µM | [6] 44.7 µM | [7] 56.4 µM | [8] > 100 µM | [9] 42.8 µM | [10] 46.1 µM | [11] 93.8 µM | [12] > 100 µM | [13] 44.4 µM | [14] 43.9 µM | [15] 61.8 µM | [16] 77.6 µM | [17] 81.1 µM | [18] 33.6 µM | [19] 61.4 µM | [20] 46.1 µM

CC(C)=CCC[C@@H](C)C1=C(O)C(=O)C(C)=C(Nc2ccccc2F)C1=O
inactive: [1] 17.2 µM | [2] 23.9 µM | [3] 12.9 µM | [4] 15.2 µM | [5] 12.7 µM | [6] 9.62 µM | [7] 49.2 µM | [8] 60.4 µM | [9] 3.82 µM | [10] 29.9 µM | [11] 48.1 µM | [12] 25.7 µM | [13] 3.49 µM | [14] 36.7 µM | [15] 16.6 µM | [16] 12.7 µM | [17] 12.1 µM | [18] 12.5 µM | [19] 9.77 µM | [20] 17.5 µM
